Data on 2 compounds can be found in patent US4681872A (priority 1985, dated 1987).

One data set concerns Bact. fragilis 784. Description: microbe, parasite or virus in culture. The conditions noted are these: Bacteroides fragilis.
The test system of data set [1] is Bact. fragilis UC-2. Description: microbe, parasite or virus in culture. To be noted: Bacteroides fragilis, UC2.
For data set [2] the following is noted: human, in vivo; cited from earlier work.
The subject of a further data set is Micrococcus luteus 4698. The data set is described as follows: antimicrobial spectrum, agar dilution MIC. The conditions noted are these: BHI agar, 35°-37° C., 20-24 hours. For orientation: In agar dilution, organisms are placed on agar that contains the substance at set levels.
In data set [3] the test system is Bact. fragilis UC-2. The conditions noted are these: BHI agar, 35°-37° C., 20-24 hours.
For data set [4], the system named is Pseudomonas aeruginosa 5007. The data set is described as follows: antimicrobial spectrum, agar dilution MIC. To be noted: BHI agar, 35°-37° C., 20-24 hours.
The test system of data set [5] is Klebsiella pneumoniae 8045. The data set is described as follows: antimicrobial spectrum, agar dilution MIC. To be noted: BHI agar, 35°-37° C., 20-24 hours.
The test system of data set [6] is Providencia stuartii CMX 640. Description: antimicrobial spectrum, agar dilution MIC. To be noted: BHI agar, 35°-37° C., 20-24 hours. Format: cell-based.
For data set [7] the following is noted: beagle dogs, oral, 10.0 mg/kg, buffered solution of the lactobionate salt in water; in comparison to erythromycin A.
For the next data set, the system named is Pseudomonas cepacia 2961. Description: antimicrobial spectrum, agar dilution MIC. To be noted: BHI agar, 35°-37° C., 20-24 hours.
In data set [8] the test system is Pseudomonas aeruginosa BMH10. The data set is described as follows: antimicrobial spectrum, agar dilution MIC. To be noted: BHI agar, 35°-37° C., 20-24 hours.
The subject of the next data set is Micrococcus luteus 9341. The data set is described as follows: antimicrobial spectrum, agar dilution MIC. To be noted: BHI agar, 35°-37° C., 20-24 hours.
The subject of data set [9] is Strep. pyogenes M79061-98. The data set is described as follows: antimicrobial spectrum, agar dilution MIC. Format: cell-based. The conditions noted are these: BHI agar, 35°-37° C., 20-24 hours.
The next data set has as its system E. coli SS. Description: antimicrobial spectrum, agar dilution MIC. To be noted: BHI agar, 35°-37° C., 20-24 hours.

In brackets after ≈: the same amount, converted by molar mass. Read-outs that look alike come from different tables or passages of the source.

In the case of `CC[C@H]1OC(=O)[C@H](C)[C@@H](O[C@H]2C[C@@](C)(OC)[C@@H](O)[C@H](C)O2)[C@H](C)[C@@H](O[C@@H]2O[C@H](C)C[C@H](N(C)C)[C@H]2O)[C@](C)(O)C[C@@H](C)C(=O)[C@H](C)[C@@H](O)[C@]1(C)O` [Erythromycin A, reference compound], the MIC in the data set on Bact. fragilis 784 and in the data set with Bact. fragilis UC-2 [1] was 1.6 µg/mL (≈ 2.18 µM) each time. Moreover, the serum half-life in data set [2] is 2 to 3 h.
`CCC1OC(=O)C(C)C(OC2CC(C)(OC)CC(C)O2)C(C)C(OC2OC(C)CC(N(C)C)C2O)C(C)(O)CC(C)C(=O)C(C)C2OC(=O)OC12C` (stereo not drawn) [4"-deoxyerythromycin A 11,12-carbonate]: the MIC entry was “.1 µg/mL” against Micrococcus luteus 4698; 1.6 µg/mL (≈ 2.15 µM) against Bact. fragilis UC-2 [3]; 100 µg/mL (≈ 134 µM) in data set [4]; 25 µg/mL (≈ 33.6 µM) in data set [5]; 100 µg/mL (≈ 134 µM) in data set [6]; 50 µg/mL (≈ 67.2 µM) in the data set with Pseudomonas cepacia 2961. Further, the MIC was 50 µg/mL (≈ 67.2 µM) in data set [8], “.02 µg/mL” against Micrococcus luteus 9341, “.12 µg/mL” in data set [9] and “.2 µg/mL” in the data set on E. coli SS. The half life result in [7] is “substantially longer half life”. For the same compound, the peak blood level result in data set [7] is on record as “markedly higher peak blood level”.
